Test results taken from the OPERA property sets (Mansouri et al. 2018).

Compound | logP | logD (pH 7.4)
COC(=O)NC1=NCC(c2ccccc2Br)N1 (stereo unspecified) | 1.85 | –
CC1=C(C(=O)O)N2C(=O)C(NC(NC(=O)c3nn(-c4ccccc4)c(=O)[nH]c3=O)c3ccc(O)cc3)C2SC1 (stereo unspecified) | 1.26 | –
C[C@H](CN1CCOCC1)C(C(=O)N1CCCC1)(c1ccccc1)c1ccccc1 | 3.61 | –
O=c1c2c(nc3n1CCC3)CCCC2 | 0.83 | –
CN(C)C(=O)NCCCCn1nc(-c2ccccc2)ccc1=O | 1.58 | –
Nc1nc(N)c2ncn([C@H]3C=C[C@@H](CO)O3)c2n1 | -0.48 | –
Cc1cccc(Nc2c([N+](=O)[O-])c(C)nn2-c2ccccc2)c1 | 3.25 | –
COCC(C)n1ccc(=O)c(O)c1C (stereo unspecified) | -0.26 | –
CCC1(O)CC2CN(CCc3c([nH]c4ccccc34)C(C(=O)OC)(c3cc4c(cc3OC)N(C)C3C(O)(C(=O)OC)C(OC(=O)CN(C)C)C5(CC)C=CCN6CCC43C65)C2)C1 (stereo unspecified) | 4.02 | –
COc1ccc2cc(C(C)C(=O)OCC=C(C)CCC=C(C)C)ccc2c1 (stereo unspecified) | 7.77 | –
C=C[C@H]1CN2CCC1C[C@@H]2[C@@H](O)c1ccnc2ccccc12 (stereo partly specified) | 2.68 | –
CC(=O)Nc1nc(=O)cc(-c2ccc([N+](=O)[O-])o2)s1 | 1.01 | –
Nc1ccc(C(=O)O)cc1N | 0.13 | –
COc1ccc2c3c1O[C@H]1[C@@H](O)C=C[C@H]4[C@@H](C2)N(C)CC[C@@]341.O=P(O)(O)O | – | -1.4
CCCN1CCOC2c3cc(O)ccc3OCC21 (stereo unspecified) | 1.97 | –
CC1=NS(=O)(=O)c2cc(S(N)(=O)=O)c(Cl)cc2N1 | 0.03 | –

Compound | logP | logD (pH 7.4)
COc1c(O)ccc(O)c1OC | 0.61 | –
CCOC(=O)CN(C(=O)CCl)c1ccccc1OC(C)C | 2.75 | –
CN(C)[C@@H]1C(O)=C(C(N)=O)C(=O)[C@@]2(O)C(O)=C3C(=O)c4c(O)cccc4[C@@](C)(O)[C@H]3[C@H](O)[C@@H]12 | -0.9 | –
Cc1cc2n(c1C(=O)c1ccccc1)CCC2C(=O)O (stereo unspecified) | 2.85 | –
NC(=O)Cc1ccc(C(=O)O)cc1 | 0.3 | –
O=C(O)CCc1ccc(OCc2ccccc2)cc1 | 3.31 | –
CCc1ccc(OCC(OC(=S)n2ccnc2)C(C)(C)C)cc1 (stereo unspecified) | 5.09 | –
O=c1c2ccccc2nc2n1CCCC2 | 1.52 | –
Nc1nc(NCC(O)CO)c(Cl)nc1[N+](=O)[O-] (stereo unspecified) | -0.22 | –
O=C(O)COc1ccccc1[N+](=O)[O-] | 1.13 | –
CCOCCCn1ccc(=O)c(O)c1C | 0.12 | –
COc1ccc2c(c1)[nH]c1c(C)nccc12 | 3.56 | –
CN(C)C(=O)OCc1cccc([N+](=O)[O-])c1 | 1.98 | –
CCCCCCCCCCCCOC(=O)N(C)SN(C)C(=O)Oc1ccc2c(c1)OCO2 | 7.39 | –
CCc1nc(S(=O)(=O)Nc2c(F)cccc2F)nn1-c1ccccc1 | 3.7 | –
